Measurements as given in a compilation of properties of binary mixtures (doi:10.1016/j.jct.2022.106952).

Test: xn = mol fraction of the nth substance listed
Details: 101.3 kPa

CCCC[n+]1ccn(C)c1.F[P-](F)(F)(F)(F)F + CCCCCCCCN1CCCC1=O
x1 = 1
Details	speed of sound [m/s]
308.15 K	1419.8
313.15 K	1408.2
318.15 K	1396.8
323.15 K	1385.6

CCCCCCCCN1CCCC1=O + CCCC[n+]1ccn(C)c1.F[P-](F)(F)(F)(F)F
speed of sound [m/s]
Details	303.15 K	308.15 K	313.15 K	318.15 K	323.15 K
x2 = 0	1433.6	1416.3	1399.1	1382.1	1365.2
x2 = 0.0531	1430	1413.2	1396.4	1379.8	1363.3
x2 = 0.1034	1425.4	1408.9	1392.5	1376.3	1360.2
x2 = 0.1513	1421.4	1405.2	1389.2	1373.3	–
x2 = 0.2034	1417.6	1401.8	1386.2	1370.7	1355.3
x2 = 0.3009	1412.1	–	1382	1367.1	1352.4
x2 = 0.405	–	1393.9	1379.6	1365.4	1351.4
x2 = 0.5042	–	1393.1	1379.4	1365.8	1352.3
x2 = 0.5996	1407.7	–	–	1367.9	–
x2 = 0.6991	1410.4	1397.4	1384.6	1372.1	1359.6
x2 = 0.8029	1415.4	1402.9	1390.6	–	1366.5
x2 = 0.8451	–	1405.7	–	1381.7	1369.9
x2 = 0.8927	1421.5	1409.4	1397.5	–	1374.2
x2 = 0.9513	1426.6	1414.7	1403	1391.4	1380.1
